From patent US6727226B2 (priority 2000, dated 2004)

Experiments:
[1] = guinea pig, in vivo
neurotensin receptors = conditions: in vivo; cited from earlier work

## CCCCN1CCCCC1C(=O)Nc1c(C)cccc1C (centres unmarked) [bupivacaine]
[1]
  duration of local anesthesia: slightly longer duration thatn lidocaine

## contulakin-G
Neurotensin receptors
  potency in inhibiting pain relative to neurotensin: significantly more potent than neurotensin
